Test results from article PMC9721373 (Antiviral Research, 2022).
Structures can show the parent of a compound that is named as a salt.

Test system: SARS2-S-mediated membrane fusion
Assay type: cell-based, SARS-CoV-2

SMILES: CC(CN(C)C)CN1c2ccccc2Sc2ccccc21 (centres unmarked) [Alimemazine tartrate]
- SARS2-S-mediated membrane fusion (average number of nuclei in each syncytium): reduced the formation of syncytia
- membrane fusion by mutant SARS2-S (Δ69–70, N501Y, E484K, D614G): reduced the formation of syncytia
